Laboratory results from EP0561850B1, “7-SUBSTITUTED-6-FLUORO-1,4-DIHYDRO-4-OXO-QUINOLINE-3-CARBOXYLIC ACID COMPOUNDS USEFUL AS ANTIBACTERIAL AGENTS” (priority 1990, dated 1992).
Converted amounts (≈) assume the structure as drawn. Where two headings read alike, the source gives them in different places.

Assays:
Assay in all cases: Microbroth dilution (MHB) method, NCCLS M7-A2
[1] = tested on: Enterobacter cloacae S-130; assay type: cell-based; details: 35 °C/18 hr
Procedure: (§1) The test organisms were obtained from ATCC and clinical laboratories. The 96-well microtitre plates containing […] of serially diluted test compounds in Mueller Hinton Broth (MHB) (conc. range 64-0.03 µg/ml) were inoculated with […] of bacterial suspension in MHB so that an inoculum size of 5 x 10^5 cfu/ml was achieved.
(§2) EC. (S- 63): Eschericia coli Ecl. (S- 130): Enterobacter cloacae Pa. (S- 67): Pseudomonas aeruginosa Kp. (S- 80): Klebsiella pneumoniae Pr.
(§3) Microbroth Dilution (MHB) method; Inoculum, 5 x 10^5 cfu/ml; Incubation 35 °C/18 hr

Eschericia coli S-63 = assay type: cell-based; details: Ec S-63, inoculum 5 x 10^5 cfu/ml, 35 °C/18 hr
Procedure: as §1, §2, §3

[2] = tested on: Klebsiella pneumoniae S-80; assay type: cell-based; details: Kp S-80, MHB, inoculum 5 x 10^5 cfu/ml, 35 °C/18 hr
Procedure: as §1, §2, §3

[3] = tested on: Providencia rettgeri S-121; assay type: cell-based; details: 35 °C/18 hr
Procedure: as §1, §2, §3

[4] = tested on: Pseudomonas aeruginosa S-67; assay type: cell-based; details: Pa S-67, MHB, inoculum 5 x 10^5 cfu/ml, 35 °C/18 hr
Procedure: as §1, §2, §3

[5] = tested on: Staphylococcus aureus S-127; assay type: cell-based; details: 35 °C/18 hr
Procedure: as §1, §2, §3

Sa 127M = assay type: cell-based, Staphylococcus aureus; details: inoculum 5 x 10^5 cfu/ml, 35 °C/18 hr
Procedure: as §1, §2, §3

[6] = Enterobacter cloacae, S130, Ecl S-130, inoculum 5 x 10^5 cfu/ml, read-out: MIC
[7] = Klebsiella pneumoniae, S80, read-out: MIC
[8] = Providencia rettgeri, S121, Pr S-121, inoculum 5 x 10^5 cfu/ml, read-out: MIC
[9] = Pseudomonas aeruginosa, S67, read-out: MIC
[10] = Staphylococcus aureus, S127, Sa S-127, inoculum 5 x 10^5 cfu/ml, read-out: MIC
[11] = Staphylococcus aureus, read-out: MIC

| Compound | MIC [1, 6] [µg/mL] | MIC (Eschericia coli S-63; read-out: MIC) [µg/mL] | MIC [2, 7] [µg/mL] | MIC [3, 8] [µg/mL] | MIC [4, 9] [µg/mL] | MIC [5, 10] [µg/mL] | MIC (Sa 127M; [11]) [µg/mL] | MIC ([1]; Ecl S-130, inoculum 5 x 10^5 cfu/ml) | MIC (Eschericia coli S-63) | MIC [2] | MIC ([3]; Pr S-121, inoculum 5 x 10^5 cfu/ml) | MIC [4] [µg/mL] | MIC ([5]; Sa S-127, inoculum 5 x 10^5 cfu/ml) | MIC (Sa 127M) |
| --- | --- | --- | --- | --- | --- | --- | --- | --- | --- | --- | --- | --- | --- | --- |
| COc1c(N2CCC(n3ccnn3)C2)c(F)cc2c(=O)c(C(=O)O)cn(C3CC3)c12 (stereo not drawn) [Example 32, 1-Cyclopropyl-6-fluoro-7-[3-(1,2,3-triazol-1-yl)pyrrolidin-1-yl]-8-methoxy-1,4-dihydro-4-oxo-quinoline-3-carboxylic acid] | 0.5 (≈ 1.21 µM) | 0.12 (≈ 0.29 µM) | 0.25 (≈ 0.605 µM) | 0.12 (≈ 0.29 µM) | 4 (≈ 9.68 µM) | ≤ 0.03 | ≤ 0.03 | – | – | – | – | – | – | – |
| O=C(O)c1cn(C2CC2)c2c(F)c(N3CCC(n4ccnn4)C3)c(F)c(F)c2c1=O (stereo not drawn) [Example 49, 1-cyclopropyl-5,6,8-trifluoro-7-[3-(1,2,3-triazol-1-yl)-pyrrolidin-1-yl]-1,4-dihydro-4-oxo-quinoline-3-carboxylic acid] | 0.5 (≈ 1.19 µM) | 0.5 (≈ 1.19 µM) | 0.5 (≈ 1.19 µM) | 0.12 (≈ 0.286 µM) | 8 (≈ 19.1 µM) | 0.25 (≈ 0.596 µM) | 0.25 (≈ 0.596 µM) | – | – | – | – | – | – | – |
| O=C(O)c1cn(C2CC2)c2c(F)c(N3CCC(n4ccnn4)C3)c(F)c(O)c2c1=O (stereo not drawn) [Example 50, 1-Cyclopropyl-5-hydroxy-6,8-difluoro-7-[-3-(1,2,3-triazol-1-yl)-pyrrolidin-1-yl]-1,4-dihydro-4-oxo-quinoline-3-carboxylic acid] | 2 (≈ 4.79 µM) | 1 (≈ 2.4 µM) | 1 (≈ 2.4 µM) | 0.06 (≈ 0.144 µM) | 16 (≈ 38.3 µM) | 0.25 (≈ 0.599 µM) | 0.25 (≈ 0.599 µM) | – | – | – | – | – | – | – |
| Cc1c(F)c(N2CCC(n3cncn3)C2)c(F)c2c1c(=O)c(C(=O)O)cn2C1CC1 (stereo not drawn) [Example 23, 1-Cyclopropyl-6,8-difluoro-5-methyl-7-[3-(1,2,4-triazol-1-yl)pyrrolidin-1-yl]-1,4-dihydro-4-oxo-quinoline-3-carboxylic acid] | 0.25 (≈ 0.602 µM) | 0.12 (≈ 0.289 µM) | 0.5 (≈ 1.2 µM) | 0.5 (≈ 1.2 µM) | 4 (≈ 9.63 µM) | ≤ 0.015 | ≤ 0.015 | – | – | – | – | – | – | – |
| O=C(O)c1cn(C2CC2)c2c(F)c(N3CCC(n4cc(-c5ccccc5)nn4)C3)c(F)cc2c1=O (stereo not drawn) [Example 46, 1-cyclopropyl-6,8-difluoro-7-[3-(4-phenyl-1,2,3-triazol-1-yl)-pyrrolidin-1-yl]-1,4-dihydro-4-oxo-quinoline-3-carboxylic acid] | 1 (≈ 2.09 µM) | 0.25 (≈ 0.524 µM) | 1 (≈ 2.09 µM) | 0.015 (≈ 0.0314 µM) | 32 (≈ 67 µM) | 0.015 (≈ 0.0314 µM) | 0.015 (≈ 0.0314 µM) | – | – | – | – | – | – | – |
| COc1c(N2CC[C@H](n3ccnn3)C2)c(F)cc2c(=O)c(C(=O)O)cn(C3CC3)c12 [Example 31, 1-Cyclopropyl-6-fluoro-7-[3S-(1,2,3-triazol-1-yl)pyrrolidin-1-yl]-8-methoxy-1,4-dihydro-4-oxo-quinoline-3-carboxylic acid] | 0.5 (≈ 1.21 µM) | 0.12 (≈ 0.29 µM) | 0.25 (≈ 0.605 µM) | 0.5 (≈ 1.21 µM) | 2 (≈ 4.84 µM) | ≤ 0.015 | ≤ 0.015 | – | – | – | – | – | – | – |
| O=C(O)c1cn(C2CC2)c2c(F)c(N3CCC(n4cncn4)C3)c(F)cc2c1=O (stereo not drawn) [Example 29, 1-Cyclopropyl-6,8-difluoro-7-[3-(1,2,4-triazol-1-yl)pyrrolidin-1-yl]-1,4-dihydro-4-oxo-quinoline-3-carboxylic acid] | 0.25 (≈ 0.623 µM) | 0.12 (≈ 0.299 µM) | 0.5 (≈ 1.25 µM) | 0.25 (≈ 0.623 µM) | 4 (≈ 9.97 µM) | 0.03 (≈ 0.0747 µM) | 0.06 (≈ 0.149 µM) | – | – | – | – | – | – | – |
| Nc1c(F)c(N2CCC(n3cncn3)C2)c(F)c2c1c(=O)c(C(=O)O)cn2C1CC1 (stereo not drawn) [Example 28, 5-Amino-1-cyclopropyl-6,8-difluoro-7-[3-(1,2,4-triazol-1-yl)pyrrolidin-1-yl]-1,4-dihydro-4-oxo-quinoline-3-carboxylic acid] | – | 0.12 (≈ 0.288 µM) | – | – | – | ≤ 0.015 | – | – | – | – | – | – | – | – |
| N,N,N-Trimethyl-N-(2-hydroxyethyl) ammonium 1- cyclopropyl-6,8-difluoro-7-[3-(4-methyl-1,2,3-triazol-1-yl)pyrrolidin-1-yl]-1,4-dihydro-4-oxo-quinoline-3-carboxylate [Example 35] | – | – | – | – | – | – | – | .5 µg/mL | .25 µg/mL | .25 µg/mL | .25 µg/mL | 4 | ≤.015 µg/mL | .03 µg/mL |
| O=C(O)c1cn(C2CCN(c3c(F)cc4c(=O)c(C(=O)O)cn(C5CC5)c4c3F)C2)nn1 (stereo not drawn) [Example 45, 1-cyclopropyl-6,8-difluoro-7-[3-(4-carboxyl-1,2,3-triazol-1-yl)pyrrolidin-1-yl]-1,4-dihydro-4-oxo-quinoline-3-carboxylic acid] | – | 0.25 (≈ 0.561 µM) | – | – | – | – | 1 (≈ 2.25 µM) | – | – | – | – | – | – | – |
| O=C(O)c1cn(C2CC2)c2c(F)c(N3CCC(n4ncnn4)C3)c(F)cc2c1=O (stereo not drawn) [Example 51, 1-Cyclopropyl-6,8-difluoro-7-[3-(1,2,3,4-tetrazol-2-yl)pyrrolidin-1-yl]-1,4-dihydro-4-oxo-quinoline-3-carboxylic acid] | – | 0.06 (≈ 0.149 µM) | 0.12 (≈ 0.298 µM) | 0.12 (≈ 0.298 µM) | 2 (≈ 4.97 µM) | ≤ 0.03 | ≤ 0.03 | – | – | – | – | – | – | – |
